According to patent publication US4460582A, “3-Carboxybenzyl cephems” (Beecham Group P.L.C., priority 1981, dated 1984):
Where a name gives a salt, the structure may show the parent alone.

Tests used:
Assay type in all cases: cell-based
[1] = tested on: Bacillus subtilis; test: MIC on agar
From the text: (§1) The Minimum Inhibitory concentrations (MIC) of the compound
(§2) of Example 6 found necessary to prevent growth of various

[2] = tested on: Enterobacter cloacae N1; test: MIC on agar
From the text: as §1, §2

[3] = tested on: Escherichia coli JT425; test: MIC on agar
From the text: as §1, §2

[4] = tested on: Escherichia coli JT4; test: MIC on agar
From the text: as §1, §2

[5] = tested on: Klebsiella aerogenes A; test: MIC on agar
From the text: as §1, §2

[6] = tested on: Neisseria catarrhalis 1502; test: MIC on agar
From the text: as §1, §2

[7] = tested on: Proteus mirabilis C977; test: MIC on agar
From the text: as §1, §2

[8] = tested on: Proteus morganii; test: MIC on agar; conditions: Morganella morganii
From the text: as §1, §2

[9] = tested on: Proteus rettgeri; test: MIC on agar; conditions: Providencia rettgeri
From the text: as §1, §2

[10] = tested on: Pseudomonas aeruginosa Dalgleish; test: MIC on agar
From the text: as §1, §2

[11] = tested on: Pseudomonas aeruginosa NCTC 10662; test: MIC on agar; conditions: NCTC10662
From the text: as §1, §2

[12] = tested on: Serratia marcescens US32; test: MIC on agar
From the text: as §1, §2

[13] = tested on: Staphylococcus aureus Oxford; test: MIC on agar
From the text: as §1, §2

[14] = tested on: Staphylococcus aureus Russell; test: MIC on agar
From the text: as §1, §2

[15] = tested on: Streptococcus faecalis I; test: MIC on agar; conditions: Enterococcus faecalis
From the text: as §1, §2

[16] = tested on: Streptococcus pyogenes CN10; test: MIC on agar
From the text: as §1, §2

[17] = tested on: Bacillus subtilis A; test: MIC in nutrient broth
From the text: (§3) The minimum inhibitory concentrations (MIC) of the
(§4) compound of Examples 2 and 4 found necessary to prevent
(§5) growth of various bacteria in nutrient broth were as […]

[18] = tested on: Citrobacter freundii E 8; test: MIC in nutrient broth; conditions: E8
From the text: as §3, §4, §5

[19] = tested on: Enterobacter cloacae N 1; test: MIC in nutrient broth; conditions: N1
From the text: as §3, §4, §5

[20] = tested on: Escherichia coli 0111; test: MIC in nutrient broth
From the text: as §3, §4, §5

[21] = tested on: Escherichia coli JT 39 (R^+); test: MIC in nutrient broth
From the text: as §3, §4, §5

[22] = tested on: Klebsiella aerogenes A; test: MIC in nutrient broth
From the text: as §3, §4, §5

[23] = tested on: Proteus mirabilis 977; test: MIC in nutrient broth
From the text: as §3, §4, §5

[24] = tested on: Proteus morganii I 580; test: MIC in nutrient broth; conditions: Morganella morganii, I580
From the text: as §3, §4, §5

[25] = tested on: Proteus rettgeri WM 16; test: MIC in nutrient broth; conditions: Providencia rettgeri, WM16
From the text: as §3, §4, §5

[26] = tested on: Proteus vulgaris W 091; test: MIC in nutrient broth; conditions: W091
From the text: as §3, §4, §5

[27] = tested on: Pseudomonas aeruginosa A; test: MIC in nutrient broth
From the text: as §3, §4, §5

[28] = tested on: Salmonella typhimurium CT 10; test: MIC in nutrient broth; conditions: Salmonella enterica
From the text: as §3, §4, §5

[29] = tested on: Serratia marcescens US 20; test: MIC in nutrient broth; conditions: US20
From the text: as §3, §4, §5

[30] = tested on: Shigella sonnei MB 11967; test: MIC in nutrient broth; conditions: MB11967
From the text: as §3, §4, §5

[31] = tested on: Staphylococcus aureus Oxford; test: MIC in nutrient broth
From the text: as §3, §4, §5

[32] = tested on: Staphylococcus aureus Russell; test: MIC in nutrient broth
From the text: as §3, §4, §5

[33] = tested on: Streptococcus faecalis I; test: MIC in nutrient broth; conditions: Enterococcus faecalis
From the text: as §3, §4, §5

[34] = tested on: Streptococcus pneumoniae CN 33; test: MIC in nutrient broth; conditions: CN33
From the text: as §3, §4, §5

[35] = tested on: Streptococcus pyogenes CN 10; test: MIC in nutrient broth; conditions: CN10
From the text: as §3, §4, §5

| Structure (SMILES) | MIC [17] | MIC [18] | MIC [19] | MIC [20] | MIC [21] | MIC [22] | MIC [23] | MIC [24] | MIC [25] | MIC [26] | MIC [27] | MIC [28] | MIC [29] | MIC [30] | MIC [31] | MIC [32] | MIC [33] | MIC [34] | further results |
| --- | --- | --- | --- | --- | --- | --- | --- | --- | --- | --- | --- | --- | --- | --- | --- | --- | --- | --- | --- |
| CC(C)(O/N=C(\C(=O)N[C@@H]1C(=O)N2C(C(=O)O)=C(Cc3ccc(C(=O)O)cc3)CS[C@H]12)c1csc(N)n1)C(=O)O [Example 6, (6R,7R)-3-(4-Carboxybenzyl)-7-[2,Z-(2-carboxyprop-2-oxyimino)-2-(2-aminothiazol-4-yl)-acetamido]-ceph-3-em-4-carboxylic acid trifluoroacetic acid salt] | – | – | – | – | – | – | – | – | – | – | – | – | – | – | – | – | – | – | MIC [1]: > 100 µg/mL; MIC [2]: 1 µg/mL; MIC [3]: 25 µg/mL; MIC [4]: 2.5 µg/mL; MIC [5]: 0.2 µg/mL; MIC [6]: < 0.02 µg/mL; MIC [7]: 0.05 µg/mL; MIC [8]: 2.5 µg/mL; MIC [9]: 0.2 µg/mL; MIC [10]: 2.5 µg/mL; MIC [11]: 5 µg/mL; MIC [12]: 2.5 µg/mL; MIC [13]: 100 µg/mL; MIC [14]: > 100 µg/mL; MIC [15]: > 100 µg/mL; MIC [16]: 2.5 µg/mL |
| CO/N=C(\C(=O)N[C@@H]1C(=O)N2C(C(=O)O)=C(Cc3ccc(C(=O)O)cc3)CS[C@H]12)c1csc(N)n1 [Example 2, (6R,7R)-3-(4-Carboxybenzyl)-7-[2,Z-methoxyimino-2-(2-aminothiazol-4-yl)-acetamido]ceph-3-em-4-carboxylic acid trifluoroacetic acid salt] | 25 µg/mL | 25 µg/mL | 3.1 µg/mL | 6.2 µg/mL | 6.2 µg/mL | 0.2 µg/mL | 0.8 µg/mL | 1.6 µg/mL | 12.5 µg/mL | 12.5 µg/mL | > 100 µg/mL | 0.4 µg/mL | 12.5 µg/mL | 0.4 µg/mL | 12.5 µg/mL | 12.5 µg/mL | > 100 µg/mL | ≤ 0.1 µg/mL | MIC [35]: ≤ 0.1 µg/mL |
| CCO/N=C(\C(=O)N[C@@H]1C(=O)N2C(C(=O)O)=C(Cc3ccc(C(=O)O)cc3)CS[C@H]12)c1csc(N)n1 [Example 4, (6R,7R)-3-(4-Carboxybenzyl)-7-[2,Z-ethoxyimino-2-(2-aminothiazol-4-yl)-acetamido]-ceph-3-em-4-carboxylic acid trifluoroacetic acid salt] | 12.5 µg/mL | 100 µg/mL | 50 µg/mL | 3.1 µg/mL | 1.6 µg/mL | 0.1 µg/mL | 0.2 µg/mL | 100 µg/mL | 100 µg/mL | 3.1 µg/mL | > 100 µg/mL | 0.8 µg/mL | 3.1 µg/mL | 0.8 µg/mL | 3.1 µg/mL | 6.2 µg/mL | > 100 µg/mL | 6.2 µg/mL | – |
